# Assay results published in patent US12691107B2, “Methods for the treatment and prevention of lung infections caused by gram-positive bacteria, fungus, or virus by administration of tafenoquine” (priority 2020, dated 2026).
# Several values for one entry are separate records, joined by “and”; a condition that tells them apart may be missing. Equal values may be shown once. Read-outs that look alike come from different tables or passages of the source.
# Legend:
# [1] = test system: Emergomyces sp.; test: Antifungal MIC (RPMI-1640 microdilution); type: cell-based
# [2] = in vivo, cited from earlier work
# [3] = test system: Vero E6 cells; conditions: African green monkey
# [4] = test system: Pneumocystis; conditions: cited from earlier work; for minimum dose required to reduce parasitemia nearly to zero: two to three week period
# [5] = female, rat, in vivo, 2 mg/kg
# [6] = Tissue distribution of [14C]radio-labeled tafenoquine in male rats; type: in vivo, rat; conditions: for concentration of tafenoquine in lung: 25 mg base/kg single oral dose
# Method: FIG. 3: Concentration of tafenoquine in microgram equivalents per g of tissue in various tissues of male rats 12 h following administration of [14C]radio-labeled tafenoquine (25 mg base/kg). Radioactivity was measured in the combusted organs of euthanized rats by liquid scintillation analysis.
# In this study, a single oral dose of [14C]radio-labeled tafenoquine (25 mg base/kg) was given to 60 male rats, and then groups of 5 animals were killed at time points ranging from 30 minutes to 120 hours post-dose. Radioactivity in the combusted organs of killed animals was measured by liquid scintillation analysis. When expressed as microgram equivalents tafenoquine per gram of tissue, the concentration of tafenoquine in lung were at 0.5, 1, 6, 12, 24, 48, 72, 96, and 120 hours post-administration were 1.21, 6.43, 133, 154, 136, 119, 83.7, 59.4, and 44.4, respectively.
structure (smiles),measurement,setting,value
COc1cc(C)c2c(Oc3cccc(C(F)(F)F)c3)c(OC)cc(NC(C)CCCN)c2n1.O=C(O)CCC(=O)O (centres unmarked) [Tafenoquine Succinate],MIC 100% inhibition,[1]; isolate Emerg3,4 µg/mL
same,MIC50,"[1]; read-out: MIC 50% inhibition, isolate Emerg2",4 µg/mL
same,MIC50,"[1]; read-out: MIC 50% inhibition, isolate Emerg3",2 µg/mL
same,MIC,"[1]; read-out: MIC 100% inhibition, isolate Emerg2",4 µg/mL
"COc1cc(C)c2c(Oc3cccc(C(F)(F)F)c3)c(OC)cc(NC(C)CCCN)c2n1 (centres unmarked) [Tafenoquine, N(4)-[2,6-Dimethoxy-4-methyl-5-[3-(trifluoromethyl)phenoxy]quinolin-8-yl]pentane-1,4-diamine]",Cmax of a single dose of 200 mg,[2]; 200 mg,[147 ng/ml *4.4].
same,Cmax following a single dose,[2],approximately 90 nanogram/ml
same,dose proportionality of pharmacokinetics,[2],proportional with the dose administered in the therapeutic range
same,steady state Cmax,[2],300 nanogram/ml
same,steady state concentrations in 95% of individuals,[2],above 80 nanogram/ml
same,CC50,[3],37.2 µM
same,minimum dose required to reduce parasitemia nearly to zero,"[4]; prophylaxis, once every 4 days orally",4 mg/kg
same,Dose in female rats required to exhibit a statistically significant impairment of Pneumocystis replication,[4]; treatment modality,2 mpk q 4 days and 2 mpk q 4 mpk q 4 days
same,minimum dose required to reduce parasitemia nearly to zero,"[4]; treatment, daily orally",4 mg/kg/day
same,Estimate of plasma concentration following a single dose of 2 mpk in rats,[5],35.84 ng/mL
same,concentration of tafenoquine in lung,[6]; 0.5 hours post-administration,1.21 microgram equivalents tafenoquine per gram of tissue
same,concentration of tafenoquine in lung,[6]; 1 hour,6.43 microgram equivalents tafenoquine per gram of tissue
same,concentration of tafenoquine in lung,[6]; 6 hours,133 microgram equivalents tafenoquine per gram of tissue
same,concentration of tafenoquine in lung,[6]; 12 hours,154 microgram equivalents tafenoquine per gram of tissue
same,concentration of tafenoquine in lung,[6]; 24 hours,136 microgram equivalents tafenoquine per gram of tissue
same,concentration of tafenoquine in lung,[6]; 48 hours,119 microgram equivalents tafenoquine per gram of tissue
same,concentration of tafenoquine in lung,[6]; 72 hours,83.7 microgram equivalents tafenoquine per gram of tissue
same,concentration of tafenoquine in lung,[6]; 96 hours,59.4 microgram equivalents tafenoquine per gram of tissue
same,concentration of tafenoquine in lung,[6]; 120 hours,44.4 microgram equivalents tafenoquine per gram of tissue
same,lung:blood concentration ratio,[6]; rat,250
same,ratio of lung:plasma concentrations,[6]; rat,~650
same,tissue accumulation,"[6]; rat, FIG. 3",accumulate in lung more than any other tissue in the body
